Patent US20230064983A1 (priority 2020, published 2023)

What was measured:
Format in all cases: cell-based
[1] = target: Ba/F3-EGFR-E746_A750del cells (Homo sapiens, UniProt P00533, DEL746-750, cells depend on it); assay: Ba/F3 cell survival assay, EGFR E746_A750del; details: classical activating and rare EGFR mutations; Table 7; read-out: BA/F3 (EGFR E746_A750del) IC50
[2] = target: Ba/F3-EGFR-H773_V774insNPH cells (Homo sapiens, UniProt P00533, DUP771-773, cells depend on it); assay: Ba/F3 cell survival assay, EGFR H773_V774insNPH; details: EGFR Exon20 insertion mutations; Table 6; read-out: BA/F3 (EGFR H773_774insNPH) IC50
Sequence of Ba/F3-EGFR-H773_V774insNPH cells (P00533 with tags, fused parts or gaps DUP771-773): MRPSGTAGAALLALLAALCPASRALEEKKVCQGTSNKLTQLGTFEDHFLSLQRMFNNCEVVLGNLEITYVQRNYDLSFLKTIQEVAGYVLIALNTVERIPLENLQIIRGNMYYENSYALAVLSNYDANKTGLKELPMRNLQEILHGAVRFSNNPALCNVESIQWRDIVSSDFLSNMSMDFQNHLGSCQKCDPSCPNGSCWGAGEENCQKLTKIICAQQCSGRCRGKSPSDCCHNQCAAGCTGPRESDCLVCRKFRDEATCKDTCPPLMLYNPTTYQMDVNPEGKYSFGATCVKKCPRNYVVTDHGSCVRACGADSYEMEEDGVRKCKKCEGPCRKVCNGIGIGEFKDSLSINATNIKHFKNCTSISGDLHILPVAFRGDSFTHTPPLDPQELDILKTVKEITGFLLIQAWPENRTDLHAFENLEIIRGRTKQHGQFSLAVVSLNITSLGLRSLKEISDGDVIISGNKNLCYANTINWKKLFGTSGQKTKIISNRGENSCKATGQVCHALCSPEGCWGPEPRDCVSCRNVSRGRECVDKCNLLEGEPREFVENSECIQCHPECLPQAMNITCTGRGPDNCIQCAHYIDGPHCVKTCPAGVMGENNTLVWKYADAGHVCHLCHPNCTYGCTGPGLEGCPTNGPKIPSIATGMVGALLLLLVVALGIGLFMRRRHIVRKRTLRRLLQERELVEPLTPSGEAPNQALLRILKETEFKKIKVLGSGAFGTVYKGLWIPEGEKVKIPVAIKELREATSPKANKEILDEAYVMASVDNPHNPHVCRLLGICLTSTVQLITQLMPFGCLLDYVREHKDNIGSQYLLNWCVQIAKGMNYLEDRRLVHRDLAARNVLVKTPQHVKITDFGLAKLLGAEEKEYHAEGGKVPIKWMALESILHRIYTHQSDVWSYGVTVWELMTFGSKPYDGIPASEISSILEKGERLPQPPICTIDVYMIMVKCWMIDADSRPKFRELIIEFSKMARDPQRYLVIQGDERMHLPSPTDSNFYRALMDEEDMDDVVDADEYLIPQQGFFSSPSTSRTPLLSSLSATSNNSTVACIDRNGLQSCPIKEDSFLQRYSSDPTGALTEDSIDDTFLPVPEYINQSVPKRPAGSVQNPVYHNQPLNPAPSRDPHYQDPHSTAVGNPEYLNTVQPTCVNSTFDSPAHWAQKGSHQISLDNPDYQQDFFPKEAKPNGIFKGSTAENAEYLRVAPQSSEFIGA

[3] = target: Ba/F3-EGFR-L858R C797S cells (Homo sapiens, UniProt P00533, C797S/L858R, cells depend on it); assay: Ba/F3 cell survival assay, EGFR L858R C797S; details: aquired resistance space; Table 8; read-out: BA/F3 (EGFR L858R C797S) IC50
Sequence of Ba/F3-EGFR-L858R C797S cells (P00533 whole entry C797S/L858R): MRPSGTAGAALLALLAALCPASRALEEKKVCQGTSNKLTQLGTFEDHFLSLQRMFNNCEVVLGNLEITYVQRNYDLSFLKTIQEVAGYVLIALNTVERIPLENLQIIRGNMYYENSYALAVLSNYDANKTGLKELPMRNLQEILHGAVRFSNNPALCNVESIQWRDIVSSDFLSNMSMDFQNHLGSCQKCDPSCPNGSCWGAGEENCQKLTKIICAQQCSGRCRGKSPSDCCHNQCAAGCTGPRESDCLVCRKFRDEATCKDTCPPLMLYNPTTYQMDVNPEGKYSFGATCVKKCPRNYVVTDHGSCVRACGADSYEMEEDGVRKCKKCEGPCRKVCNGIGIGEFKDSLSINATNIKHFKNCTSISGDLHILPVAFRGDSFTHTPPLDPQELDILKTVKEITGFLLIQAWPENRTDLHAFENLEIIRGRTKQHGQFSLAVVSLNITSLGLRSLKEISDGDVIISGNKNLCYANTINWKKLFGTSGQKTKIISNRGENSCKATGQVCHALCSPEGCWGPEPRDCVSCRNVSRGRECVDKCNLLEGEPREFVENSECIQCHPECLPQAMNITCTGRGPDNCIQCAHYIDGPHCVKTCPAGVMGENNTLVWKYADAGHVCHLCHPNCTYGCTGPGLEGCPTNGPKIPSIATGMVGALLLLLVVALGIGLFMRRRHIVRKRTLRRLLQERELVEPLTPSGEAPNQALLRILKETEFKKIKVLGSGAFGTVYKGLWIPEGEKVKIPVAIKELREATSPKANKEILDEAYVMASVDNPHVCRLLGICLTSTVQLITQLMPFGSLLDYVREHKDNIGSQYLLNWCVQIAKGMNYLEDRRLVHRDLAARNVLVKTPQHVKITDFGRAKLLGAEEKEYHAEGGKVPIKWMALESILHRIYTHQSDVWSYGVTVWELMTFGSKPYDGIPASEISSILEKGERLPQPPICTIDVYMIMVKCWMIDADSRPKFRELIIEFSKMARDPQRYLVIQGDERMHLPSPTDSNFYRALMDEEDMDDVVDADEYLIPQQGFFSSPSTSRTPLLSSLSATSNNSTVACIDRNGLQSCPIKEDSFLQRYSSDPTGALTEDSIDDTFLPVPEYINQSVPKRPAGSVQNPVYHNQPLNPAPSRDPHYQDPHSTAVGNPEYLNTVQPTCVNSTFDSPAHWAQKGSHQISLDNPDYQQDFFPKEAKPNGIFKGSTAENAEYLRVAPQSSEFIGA

HCC-827 cells = assay: HCC-827 cell proliferation assay (EGFRex19del); details: Homo sapiens, HCC827, 72 h, read-out: HCC-827 IC50
Experimental: Cellular Data Description (HCC-827 cells, EGFRex19del)
HCC-827 cells were purchased from ATCC. […] cells per well were seeded in growth medium (RPM11640, 10% FCS) in a 384-well plate (CORNING #3571). Seed reference plate for time zero determination on the same day. All plates were incubated overnight at 37° C. After 24 hours, test compound were added in 7-step dilution using HP Compound printer and incubated at 37° C. for 72 h. After 3 days, 30 μL/well CTG solution (Promega Cell Titer Glo solution; catalog #G755B and G756B) were added to each well, incubated for 30 minutes and the plate were read on PheraStar. Proliferation is calculated after subtracting time zero luminescence values from day 4 values and comparing to untreated wells.
The IC50 values were determined using the four parameter fit.

[4] = target: Ba/F3-EGFR-D770_N771insSVD C797S cells (Homo sapiens, UniProt P00533, DUP768-770/C797S, cells depend on it); assay: Ba/F3 cell survival assay, EGFR D770_N771insSVD C797S; details: aquired resistance space; Table 8; read-out: BA/F3 (EGFR 0770_N771 insSVD C797S) IC50
Sequence of Ba/F3-EGFR-D770_N771insSVD C797S cells (P00533 with tags, fused parts or gaps DUP768-770/C797S): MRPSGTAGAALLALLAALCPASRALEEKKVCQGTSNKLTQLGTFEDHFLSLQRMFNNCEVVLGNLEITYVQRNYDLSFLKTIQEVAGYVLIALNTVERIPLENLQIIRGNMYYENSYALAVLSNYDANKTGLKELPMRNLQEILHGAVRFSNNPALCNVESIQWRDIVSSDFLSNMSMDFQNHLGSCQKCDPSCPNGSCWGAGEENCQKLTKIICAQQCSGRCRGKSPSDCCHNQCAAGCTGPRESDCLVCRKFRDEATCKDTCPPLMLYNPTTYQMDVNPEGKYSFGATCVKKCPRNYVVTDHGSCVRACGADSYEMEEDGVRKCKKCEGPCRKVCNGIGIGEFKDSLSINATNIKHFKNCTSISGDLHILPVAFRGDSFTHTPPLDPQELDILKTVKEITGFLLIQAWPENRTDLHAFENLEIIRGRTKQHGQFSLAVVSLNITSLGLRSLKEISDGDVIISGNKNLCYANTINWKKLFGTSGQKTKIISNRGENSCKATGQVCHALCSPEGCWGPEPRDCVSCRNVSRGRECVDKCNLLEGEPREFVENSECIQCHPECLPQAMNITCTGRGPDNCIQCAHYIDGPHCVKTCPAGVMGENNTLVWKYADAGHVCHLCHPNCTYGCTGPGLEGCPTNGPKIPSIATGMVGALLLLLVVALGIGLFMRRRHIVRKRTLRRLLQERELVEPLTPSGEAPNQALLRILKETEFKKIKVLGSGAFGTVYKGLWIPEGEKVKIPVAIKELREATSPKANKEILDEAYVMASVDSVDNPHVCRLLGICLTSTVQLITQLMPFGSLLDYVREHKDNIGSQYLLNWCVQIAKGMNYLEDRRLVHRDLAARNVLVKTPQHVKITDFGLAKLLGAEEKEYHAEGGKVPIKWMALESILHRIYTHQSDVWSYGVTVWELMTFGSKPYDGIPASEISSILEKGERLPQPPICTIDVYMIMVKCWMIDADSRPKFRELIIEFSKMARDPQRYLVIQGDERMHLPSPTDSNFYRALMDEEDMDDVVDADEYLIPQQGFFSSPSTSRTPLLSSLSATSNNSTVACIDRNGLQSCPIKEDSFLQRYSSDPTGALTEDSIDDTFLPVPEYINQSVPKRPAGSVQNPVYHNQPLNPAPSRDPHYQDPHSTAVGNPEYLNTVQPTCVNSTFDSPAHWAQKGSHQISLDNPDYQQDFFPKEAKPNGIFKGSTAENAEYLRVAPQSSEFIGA

Sequence of Ba/F3-EGFR-E746_A750del cells (P00533 with tags, fused parts or gaps DEL746-750): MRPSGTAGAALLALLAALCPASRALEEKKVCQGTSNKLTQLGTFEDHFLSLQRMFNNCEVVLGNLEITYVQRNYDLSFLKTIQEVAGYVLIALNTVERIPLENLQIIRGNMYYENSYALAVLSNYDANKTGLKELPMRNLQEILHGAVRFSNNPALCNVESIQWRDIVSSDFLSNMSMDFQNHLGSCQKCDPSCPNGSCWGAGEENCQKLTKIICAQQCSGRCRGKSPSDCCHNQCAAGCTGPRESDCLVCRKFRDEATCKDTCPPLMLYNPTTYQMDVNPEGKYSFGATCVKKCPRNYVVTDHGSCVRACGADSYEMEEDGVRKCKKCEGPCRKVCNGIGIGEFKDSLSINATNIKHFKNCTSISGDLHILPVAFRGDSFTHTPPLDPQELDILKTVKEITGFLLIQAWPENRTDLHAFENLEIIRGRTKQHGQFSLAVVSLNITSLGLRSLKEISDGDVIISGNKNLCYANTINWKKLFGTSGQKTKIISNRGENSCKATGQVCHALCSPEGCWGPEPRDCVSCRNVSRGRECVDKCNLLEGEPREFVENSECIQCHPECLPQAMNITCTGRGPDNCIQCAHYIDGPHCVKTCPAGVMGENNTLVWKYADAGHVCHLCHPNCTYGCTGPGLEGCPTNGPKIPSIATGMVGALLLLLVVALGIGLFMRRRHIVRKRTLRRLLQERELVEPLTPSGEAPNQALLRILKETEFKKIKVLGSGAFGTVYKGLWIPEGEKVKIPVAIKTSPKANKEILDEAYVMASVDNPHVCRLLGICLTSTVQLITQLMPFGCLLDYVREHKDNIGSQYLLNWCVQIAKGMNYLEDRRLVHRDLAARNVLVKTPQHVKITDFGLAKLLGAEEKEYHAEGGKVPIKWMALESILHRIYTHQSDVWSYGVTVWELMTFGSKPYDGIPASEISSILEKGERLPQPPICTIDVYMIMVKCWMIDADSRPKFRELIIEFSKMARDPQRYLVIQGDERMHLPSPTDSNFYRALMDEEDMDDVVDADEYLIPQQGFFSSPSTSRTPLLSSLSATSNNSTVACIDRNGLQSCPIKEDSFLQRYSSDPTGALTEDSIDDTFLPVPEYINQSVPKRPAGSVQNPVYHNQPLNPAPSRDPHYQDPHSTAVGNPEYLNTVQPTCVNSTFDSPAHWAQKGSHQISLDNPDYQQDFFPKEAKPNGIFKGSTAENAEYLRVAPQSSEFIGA

Row | SMILES | GI50 [1] | GI50 [2] | GI50 [3] | IC50 (HCC-827 cells) | GI50 [4]
1 | COc1c(Cl)cccc1Nc1c(-c2ccncc2OC[C@@H]2CCCO2)[nH]c2c1C(=O)NC1(CC1)C2 [Example 113, 3′-(3-chloro-2-methoxyanilino)-2′-(3-{[(2S)-oxolan-2-yl]methoxy}pyridin-4-yl)-1′,7′-dihydrospiro[cyclopropane-1,6′-pyrrolo[3,2-c]pyridin]-4′(5′H)-one] | 0.989 nM | 116 nM | 5.07 nM | < 3 nM | 71.4 nM
2 | COc1c(Cl)cccc1Nc1c(-c2ccncc2OCCC2CCCCO2)[nH]c2c1C(=O)N[C@H](C)C2 (single isomer, unassigned) [Example 87] | 5 nM | 138 nM | 1.38 nM | < 3 nM | 22.1 nM
3 | Cc1c(Cl)cccc1Nc1c(-c2ccncc2OCC2COCCO2)[nH]c2c1C(=O)NCC2C (single isomer, unassigned) [Example 67, 3-(3-chloro-2-methyl-anilino)-2-[3-(1,4-dioxan-2-ylmethoxy)-4-pyridyl]-7-methyl-1,5,6,7-tetrahydropyrrolo[3,2-c]pyridin-4-one] | 1.41 nM | 117 nM | 2.49 nM | < 3 nM | 40.6 nM
4 | COc1c(Cl)cccc1Nc1c(-c2ccncc2OCCC(C)OC)[nH]c2c1C(=O)N[C@H](C)C2 (single isomer, unassigned) [Example 121] | 0.887 nM | 49.2 nM | 1.07 nM | < 3 nM | 21.7 nM
5 | COCC(C)Oc1cnccc1-c1[nH]c2c(c1Nc1cccc(Cl)c1OC)C(=O)N[C@@H]1CCC[C@H]21 (single isomer, unassigned) [Example 51] | 1.05 nM | 30.8 nM | 1.32 nM | < 3 nM | 19.5 nM
6 | COc1c(Cl)cccc1Nc1c(-c2ccncc2OCC2COCCO2)[nH]c2c1C(=O)NCC2C (single isomer, unassigned) [Example 34, 3-(3-chloro-2-methoxy-anilino)-2-[3-(1,4-dioxan-2-ylmethoxy)-4-pyridyl]-7-methyl-1,5,6,7-tetrahydropyrrolo[3,2-c]pyridin-4-one] | 1.19 nM | 165 nM | 3.07 nM | < 3 nM | 35.5 nM
